Laboratory results from patent publication US20260285853A1, “COMPOUNDS AND METHODS FOR MODULATING SPLICING” (REMIX THERAPEUTICS INC., priority 2023, published 2026).
Where two headings read alike, the source gives them in different places.

Key:
Type in all cases: cell-based
HTT mRNA [1] = experiment: Splicing RT-qPCR assay (THP), Table 2A
MYB mRNA [2] = experiment: Splicing RT-qPCR assay (THP), Table 2A
HTT mRNA [3] = experiment: Gene panel canonical junction qPCR assay, decrease in CJ mRNA, Table 3
How it was run: (§1)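 Eleven-point dose responses from 10 uM final, 24 h, DMSO ≤0.25%, in A673 or K562 cells. Relative quantification by 2^(−ΔΔCt) against housekeeper and vehicle was converted to percent response over fixed ΔCt windows and fitted to yield IC50.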

MYB mRNA [4] = experiment: as above
How it was run: as §1

[5] = system: SH-SY5Y (human neuroblastoma) cells; experiment: Cell viability, Cell Titer Glo 2.0 assay; conditions: read-out: Viability SHSY5Y.3 GI50
How it was run: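 Following a 72 h incubation (37 °C, 5% CO2, 0.1% DMSO final), compound toxicity toward SH-SY5Y cells was quantified by CellTiter-Glo 2.0.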

[6] = Table 2A (THP), AJ mRNA increase, read-out: HTT AJ (increase in alternative junction mRNA, AC50)
[7] = Table 2A (THP), CJ mRNA decrease, read-out: HTT CJ (decrease in canonical junction mRNA, IC50)
[8] = Table 2A (THP), AJ mRNA increase, read-out: MYB AJ (increase in alternative junction mRNA, AC50)
[9] = Table 2A (THP), CJ mRNA decrease, read-out: MYB CJ (decrease in canonical junction mRNA, IC50)
[10] = decrease in canonical junction (CJ) mRNA, gene panel qPCR, Table 3
[11] = Table 2A, THP, HTT alternative junction (AJ) mRNA, read-out: HTT AJ (AC50, increase in alternative junction mRNA)
[12] = Table 2A, THP, HTT canonical junction (CJ) mRNA, read-out: HTT CJ (IC50, decrease in canonical junction mRNA)
[13] = Table 2A, THP, MYB alternative junction (AJ) mRNA, read-out: MYB AJ (AC50, increase in alternative junction mRNA)
[14] = Table 2A, THP, MYB canonical junction (CJ) mRNA, read-out: MYB CJ (IC50, decrease in canonical junction mRNA)
[15] = decrease in CJ mRNA levels, canonical junction qPCR, gene panel

Compound | AC50 (HTT mRNA [1]; [6]) [µM] | IC50 (HTT mRNA [1]; [7]) [µM] | AC50 (MYB mRNA [2]; [8]) [µM] | IC50 (MYB mRNA [2]; [9]) [µM] | IC50 (HTT mRNA [3]; [10]) [µM] | IC50 (MYB mRNA [4]; [10]) [µM] | GI50 [5] [µM] | AC50 (HTT mRNA [1]; [11]) [µM] | IC50 (HTT mRNA [1]; [12]) [µM] | AC50 (MYB mRNA [2]; [13]) [µM] | IC50 (MYB mRNA [2]; [14]) [µM] | IC50 (HTT mRNA [3]; [15]) [µM] | IC50 (MYB mRNA [4]; [15]) [µM]
Cc1cc2c(nc(NC(=O)c3ccc(N4CCC(NC5CC5)CC4)c4cn(C)nc34)n2C)c(C)n1 [Compound 597, 4-[4-(cyclopropylamino)-1-piperidyl]-2-methyl-N-(1,4,6-trimethylimidazo[4,5-c]-pyridin-2-yl)indazole-7-carboxamide] | > 10 | > 10 | > 10 | > 10 | > 10 | > 10 | 1 to 10 | – | – | – | – | – | –
COc1nc2nccn2cc1NC(=O)c1ccc(N2CCC(NC3CC3)CC2)c2cn(C)nc12 [Compound 598, 4-[4-(cyclopropylamino)-1-piperidyl]-N-(7-methoxy-imidazo[1,2-a]pyrimidin-6-yl)-2-methyl-indazole-7-carboxamide] | > 10 | > 10 | 1 to 10 | 1 to 10 | > 10 | 1 to 10 | 1 to 10 | – | – | – | – | – | –
Cc1cn2cc(NC(=O)c3ccc(N4CCC(NC5CC5)CC4)c4cn(C)nc34)nc2c(CN(C)C)n1 [Compound 600, 4-(4-(cyclopropylamino)piperidin-1-yl)-N-(8-((dimethylamino)methyl)-6-methylimidazo[1,2-a]pyrazin-2-yl)-2-methyl-2H-indazole-7-carboxamide bis(2,2,2-trifluoroacetate)] | – | – | – | – | > 10 | > 10 | 1 to 10 | > 10 | > 10 | > 10 | > 10 | – | –
Cc1cn2cc(NC(=O)c3ccc(N4CCCC(OC5CNC5)C4)c4cn(C)nc34)nc2c(C)n1 (centres unmarked) [Compound 601] | – | – | – | – | > 10 | > 10 | > 10 | > 10 | > 10 | 1 to 10 | > 10 | – | –
COc1cc2nn(C)cc2cc1NC(=O)c1ccc(N2CCCC(OC3CNC3)C2)c2cn(C)nc12 (centres unmarked) [Compound 602] | – | – | – | – | > 10 | > 10 | > 10 | > 10 | > 10 | > 10 | > 10 | – | –
CNC1CCC(Oc2ccc(C(=O)Nc3cc4cn(C)nc4cc3OC)c3nn(C)cc23)C1 (centres unmarked) [Compound 603] | – | – | – | – | 1 to 10 | 0.1 to 1 | 1 to 10 | 1 to 10 | 1 to 10 | 0.1 to 1 | 0.1 to 1 | – | –
CCNC1CCN(c2ccc(C(=O)Nc3cn4cc(C)nc(C)c4n3)c3nn(C)cc23)CC1C (centres unmarked) [Compound 604] | – | – | – | – | 1 to 10 | > 10 | 1 to 10 | > 10 | 1 to 10 | 1 to 10 | > 10 | – | –
CCNC1CCN(c2ccc(C(=O)Nc3cc4cn(C)nc4cc3OC)c3nn(C)cc23)CC1C (centres unmarked) [Compound 605] | – | – | – | – | > 10 | 0.1 to 1 | 1 to 10 | 1 to 10 | > 10 | 0.1 to 1 | 0.1 to 1 | – | –
COc1nc2nc(C)cn2cc1NC(=O)c1cnc(N2CCC(NC3CC3)CC2)c2cn(C)nc12 [Compound 608, 4-[4-(cyclopropylamino)-1-piperidyl]-N-(7-methoxy-2-methyl-imidazo[1,2-a]-pyrimidin-6-yl)-2-methyl-pyrazolo-[4,3-c]pyridine-7-carboxamide] | – | – | – | – | – | – | 0.1 to 1 | < 0.1 | 0.1 to 1 | < 0.1 | < 0.1 | 0.1 to 1 | < 0.1
Cc1cn2cc(NC(=O)c3cnc(N4CCC(NC5CC5)CC4)c4cn(C)nc34)nc2c(C)n1 [Compound 609, 4-[4-(cyclopropylamino)-1-piperidyl]-N-(6,8-dimethylimidazo [1,2-a]pyrazin-2-yl)-2-methyl-pyrazolo[4,3-c]pyridine-7-carboxamide] | – | – | – | – | – | – | > 10 | > 10 | > 10 | < 0.1 | 0.1 to 1 | > 10 | 0.1 to 1
Cc1cn2cc(NC(=O)c3ccc(NC(=O)c4ncc[nH]4)c4[nH]cnc34)cc(F)c2n1 [Compound 610, 2,2,2-trifluoroacetate] | – | – | – | – | – | – | > 10 | > 10 | > 10 | > 10 | > 10 | > 10 | > 10
CCNC1CCN(c2ccc(C(=O)Nc3cn4cc(C)nc(C)c4n3)c3nc(C)cn23)CC1 [Compound 612, N-(6,8-dimethyl-imidazo-[1,2-a]pyrazin-2-y1)-5-[4-(ethylamino)-1-piperidyl]-2-methyl-imidazo[1,2-a]pyridine-8-carboxamide] | – | – | – | – | – | – | 1 to 10 | > 10 | > 10 | 0.1 to 1 | 0.1 to 1 | > 10 | 0.1 to 1
Cc1cn2cc(NC(=O)c3ccc(NC(=O)C4CCCN4)c4[nH]cnc34)cc(F)c2n1 (centres unmarked) [Compound 613, N-(8-fluoro-2-methyl-imidazo[1,2-a]pyridin-6-yl)-7-(pyrrolidine-2-carbonylamino)-1H-benzimidazole-4-carboxamide] | – | – | – | – | – | – | > 10 | > 10 | 1 to 10 | 1 to 10 | 1 to 10 | 1 to 10 | 1 to 10
Cc1cn2cc(NC(=O)c3ccc(NC(=O)C4CCNC4)c4[nH]cnc34)cc(F)c2n1 (centres unmarked) [Compound 614, N-(8-fluoro-2-methyl-imidazo[1,2-a]pyridin-6-yl)-7-(pyrrolidine-3-carbonylamino)-1H-benzimidazole-4-carboxamide] | – | – | – | – | – | – | > 10 | > 10 | 1 to 10 | 1 to 10 | 1 to 10 | 1 to 10 | 1 to 10
CCNC1CCN(c2ccc(C(=O)Nc3cn4cc(C)nc(C)c4n3)n3nc(C)cc23)CC1 [Compound 615, N-(6,8-dimethylimidazo[1,2-a]-pyrazin-2-y1)-4-[4-(ethylamino)-1-piperidyl]-2-methyl-pyrazolo[1,5-a]-pyridine-7-carboxamide] | – | – | – | – | – | – | 1 to 10 | 1 to 10 | 1 to 10 | 1 to 10 | 0.1 to 1 | 1 to 10 | 0.1 to 1
Cc1cn2cc(NC(=O)c3ccc(N4CCC(NC5CC5)CC4)c4cc(CO)nn34)nc2c(C)n1 [Compound 616, 4-[4-(cyclopropylamino)-1-piperidyl]-N-(6,8-dimethylimidazo[1,2-a]pyrazin-2-yl)-2-(hydroxymethyl) pyrazolo[1,5-a]-pyridine-7-carboxamide] | – | – | – | – | – | – | 1 to 10 | 1 to 10 | 1 to 10 | 1 to 10 | 1 to 10 | 1 to 10 | 1 to 10
Cc1cn2cc(NC(=O)c3ccc(N4CCC(NC5CC5)CC4)c4cc(CF)nn34)nc2c(C)n1 [Compound 617, 4-[4-(cyclopropylamino)-1-piperidyl]-N-(6,8-dimethylimidazo[1,2-a]pyrazin-2-yl)-2-(fluoromethyl)-pyrazolo[1,5-a]pyridine-7-carboxamide] | – | – | – | – | – | – | 1 to 10 | > 10 | > 10 | 0.1 to 1 | 1 to 10 | > 10 | 1 to 10
